Assay results reported in patent US20230148005A1, “MACROCYCLIC COMPOUNDS AND USES THEREOF” (THESEUS PHARMACEUTICALS, INC., priority 2020, published 2023).

Tests used:
EGFR^L858R/T790M/C^797S = EGFR^L858R/T790M/C^797S (Homo sapiens, UniProt P00533, C797S/L858R/T790M); assay: in vitro kinase assay (HTRF KinEASE-TK kit), LTC; assay type: biochemical; conditions: kinase inhibition
Description: (§1) Assays using an in vitro kinase assay kit (HTRF KinEASE-TK kit) can be used to study the inhibitory activity of compounds described herein with respect to EGFR mutants such as EGFR^L858R, EGFR^L58R/T790M, and EGFR^L858R/T790M/C^797S.

EGFR^L58R/T790M = EGFR^L58R/T790M (Homo sapiens, UniProt P00533, L858R/T790M); assay: in vitro kinase assay (HTRF KinEASE-TK kit), LT; assay type: biochemical; conditions: kinase inhibition
EGFR^L58R/T790M, sequence (P00533 25-1210 T790M/L858R): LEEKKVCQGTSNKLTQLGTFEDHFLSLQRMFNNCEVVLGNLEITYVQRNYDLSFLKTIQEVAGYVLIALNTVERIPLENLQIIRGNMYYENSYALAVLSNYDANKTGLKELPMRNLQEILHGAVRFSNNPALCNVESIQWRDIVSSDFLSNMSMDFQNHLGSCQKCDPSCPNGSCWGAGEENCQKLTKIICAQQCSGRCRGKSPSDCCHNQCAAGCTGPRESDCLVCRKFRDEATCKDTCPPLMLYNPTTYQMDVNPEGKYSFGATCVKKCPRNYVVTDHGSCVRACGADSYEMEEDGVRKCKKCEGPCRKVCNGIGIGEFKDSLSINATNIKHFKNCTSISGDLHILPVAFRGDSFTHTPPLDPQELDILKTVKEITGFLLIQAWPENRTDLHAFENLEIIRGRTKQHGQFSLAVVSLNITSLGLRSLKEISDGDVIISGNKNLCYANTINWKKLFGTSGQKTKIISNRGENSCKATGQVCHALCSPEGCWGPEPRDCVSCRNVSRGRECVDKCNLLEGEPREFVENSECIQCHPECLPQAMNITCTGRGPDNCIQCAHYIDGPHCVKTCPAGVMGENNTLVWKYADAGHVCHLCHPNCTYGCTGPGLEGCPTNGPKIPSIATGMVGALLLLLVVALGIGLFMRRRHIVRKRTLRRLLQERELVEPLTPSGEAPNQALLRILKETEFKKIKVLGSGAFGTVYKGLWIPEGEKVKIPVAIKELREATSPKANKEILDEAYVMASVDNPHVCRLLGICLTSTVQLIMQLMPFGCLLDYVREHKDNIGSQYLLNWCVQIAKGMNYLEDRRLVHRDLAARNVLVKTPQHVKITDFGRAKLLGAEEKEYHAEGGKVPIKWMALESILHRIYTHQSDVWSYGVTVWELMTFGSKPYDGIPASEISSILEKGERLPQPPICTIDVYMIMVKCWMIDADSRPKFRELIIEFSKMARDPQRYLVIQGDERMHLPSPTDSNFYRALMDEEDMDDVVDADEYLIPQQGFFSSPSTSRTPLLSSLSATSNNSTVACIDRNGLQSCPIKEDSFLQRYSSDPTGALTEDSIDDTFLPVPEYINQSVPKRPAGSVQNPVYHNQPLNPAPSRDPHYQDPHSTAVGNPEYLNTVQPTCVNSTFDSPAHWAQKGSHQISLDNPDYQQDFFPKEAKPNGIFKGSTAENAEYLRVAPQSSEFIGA
Description: as §1

EGFR^L858R = EGFR^L858R (Homo sapiens, UniProt P00533, L858R); assay: in vitro kinase assay (HTRF KinEASE-TK kit), L; assay type: biochemical; conditions: kinase inhibition
EGFR^L858R, sequence (P00533 25-1210 L858R): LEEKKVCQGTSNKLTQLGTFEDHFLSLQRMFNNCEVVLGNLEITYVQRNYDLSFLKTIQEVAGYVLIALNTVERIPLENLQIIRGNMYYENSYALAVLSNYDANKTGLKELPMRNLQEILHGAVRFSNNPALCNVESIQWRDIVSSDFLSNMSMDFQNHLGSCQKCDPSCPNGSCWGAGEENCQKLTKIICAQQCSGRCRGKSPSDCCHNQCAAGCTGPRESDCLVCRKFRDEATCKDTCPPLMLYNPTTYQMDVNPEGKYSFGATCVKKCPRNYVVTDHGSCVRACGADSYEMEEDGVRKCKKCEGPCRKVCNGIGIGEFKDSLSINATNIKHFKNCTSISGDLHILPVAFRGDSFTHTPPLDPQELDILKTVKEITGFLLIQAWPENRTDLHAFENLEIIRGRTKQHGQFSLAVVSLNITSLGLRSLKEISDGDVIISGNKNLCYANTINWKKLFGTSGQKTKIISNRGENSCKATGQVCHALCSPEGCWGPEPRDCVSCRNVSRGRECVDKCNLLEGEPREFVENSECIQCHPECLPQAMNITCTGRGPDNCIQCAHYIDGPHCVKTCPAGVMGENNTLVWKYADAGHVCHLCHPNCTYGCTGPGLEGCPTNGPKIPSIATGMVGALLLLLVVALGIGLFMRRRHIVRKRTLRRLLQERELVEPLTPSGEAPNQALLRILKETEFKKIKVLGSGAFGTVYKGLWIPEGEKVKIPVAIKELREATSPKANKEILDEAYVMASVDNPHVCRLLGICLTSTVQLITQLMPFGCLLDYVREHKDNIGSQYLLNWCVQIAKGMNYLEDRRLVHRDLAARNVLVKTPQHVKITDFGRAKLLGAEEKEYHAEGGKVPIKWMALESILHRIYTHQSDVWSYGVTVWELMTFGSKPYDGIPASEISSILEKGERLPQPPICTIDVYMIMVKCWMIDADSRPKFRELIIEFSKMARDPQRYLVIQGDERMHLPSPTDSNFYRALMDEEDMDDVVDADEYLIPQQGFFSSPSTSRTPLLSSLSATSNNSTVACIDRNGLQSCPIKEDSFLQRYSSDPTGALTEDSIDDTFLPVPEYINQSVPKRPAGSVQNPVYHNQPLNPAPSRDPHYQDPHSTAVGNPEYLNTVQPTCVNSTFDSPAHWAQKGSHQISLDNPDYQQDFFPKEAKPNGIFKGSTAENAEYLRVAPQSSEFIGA
Description: as §1

[1] = target: Ba/F3 EGFR-Del19/T790M/C797S (Homo sapiens, UniProt P00533, T790M/C797S, cells depend on it, form not given); assay: Ba/F3 viability assay (CellTiter-Glo), DTC; assay type: cell-based; conditions: anti-proliferation, read-out: BaF3 DTC IC50
Ba/F3 EGFR-Del19/T790M/C797S, sequence (P00533 with tags, fused parts or gaps DEL746-750/T790M/C797S, form open): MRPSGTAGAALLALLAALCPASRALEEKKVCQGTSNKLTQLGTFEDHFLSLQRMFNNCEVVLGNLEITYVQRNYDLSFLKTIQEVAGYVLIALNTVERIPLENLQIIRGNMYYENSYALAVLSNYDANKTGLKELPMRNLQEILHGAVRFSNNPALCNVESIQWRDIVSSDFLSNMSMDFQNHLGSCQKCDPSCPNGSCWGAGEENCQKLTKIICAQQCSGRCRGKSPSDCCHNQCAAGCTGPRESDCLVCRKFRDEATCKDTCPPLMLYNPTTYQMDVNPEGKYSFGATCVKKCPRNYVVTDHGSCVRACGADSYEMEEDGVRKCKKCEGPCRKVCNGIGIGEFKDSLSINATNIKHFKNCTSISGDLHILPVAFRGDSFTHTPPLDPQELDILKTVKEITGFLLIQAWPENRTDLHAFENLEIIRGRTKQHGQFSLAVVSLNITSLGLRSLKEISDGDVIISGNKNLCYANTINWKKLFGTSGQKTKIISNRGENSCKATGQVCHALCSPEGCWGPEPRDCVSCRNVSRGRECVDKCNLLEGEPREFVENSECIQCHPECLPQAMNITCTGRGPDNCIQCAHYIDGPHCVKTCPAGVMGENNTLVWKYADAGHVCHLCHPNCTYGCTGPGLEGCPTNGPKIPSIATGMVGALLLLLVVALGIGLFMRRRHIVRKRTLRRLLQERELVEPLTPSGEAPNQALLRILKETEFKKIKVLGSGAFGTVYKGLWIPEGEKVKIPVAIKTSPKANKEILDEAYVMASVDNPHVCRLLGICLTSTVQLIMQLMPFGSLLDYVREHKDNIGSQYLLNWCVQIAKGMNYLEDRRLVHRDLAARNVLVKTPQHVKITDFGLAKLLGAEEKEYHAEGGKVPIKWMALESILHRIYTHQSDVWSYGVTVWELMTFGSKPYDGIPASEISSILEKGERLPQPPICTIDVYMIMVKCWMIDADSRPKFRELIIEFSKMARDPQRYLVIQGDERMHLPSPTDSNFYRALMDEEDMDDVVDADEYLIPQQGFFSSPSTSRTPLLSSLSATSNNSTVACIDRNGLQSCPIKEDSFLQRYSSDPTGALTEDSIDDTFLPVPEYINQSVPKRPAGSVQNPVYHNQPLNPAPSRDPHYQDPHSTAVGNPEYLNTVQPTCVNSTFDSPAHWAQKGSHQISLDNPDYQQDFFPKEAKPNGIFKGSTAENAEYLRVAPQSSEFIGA
Outline: (§2)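 Cells are exposed to test compounds, and viability is then read to gauge inhibition of proliferation.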

Ba/F3 EGFR-Del19/T790M = Ba/F3 EGFR-Del19/T790M (Homo sapiens, UniProt P00533, T790M, cells depend on it, form not given); assay: Ba/F3 viability assay (CellTiter-Glo), DT; assay type: cell-based; conditions: anti-proliferation, read-out: BaF3 DT IC50
Ba/F3 EGFR-Del19/T790M, sequence (P00533 with tags, fused parts or gaps DEL746-750/T790M, form open): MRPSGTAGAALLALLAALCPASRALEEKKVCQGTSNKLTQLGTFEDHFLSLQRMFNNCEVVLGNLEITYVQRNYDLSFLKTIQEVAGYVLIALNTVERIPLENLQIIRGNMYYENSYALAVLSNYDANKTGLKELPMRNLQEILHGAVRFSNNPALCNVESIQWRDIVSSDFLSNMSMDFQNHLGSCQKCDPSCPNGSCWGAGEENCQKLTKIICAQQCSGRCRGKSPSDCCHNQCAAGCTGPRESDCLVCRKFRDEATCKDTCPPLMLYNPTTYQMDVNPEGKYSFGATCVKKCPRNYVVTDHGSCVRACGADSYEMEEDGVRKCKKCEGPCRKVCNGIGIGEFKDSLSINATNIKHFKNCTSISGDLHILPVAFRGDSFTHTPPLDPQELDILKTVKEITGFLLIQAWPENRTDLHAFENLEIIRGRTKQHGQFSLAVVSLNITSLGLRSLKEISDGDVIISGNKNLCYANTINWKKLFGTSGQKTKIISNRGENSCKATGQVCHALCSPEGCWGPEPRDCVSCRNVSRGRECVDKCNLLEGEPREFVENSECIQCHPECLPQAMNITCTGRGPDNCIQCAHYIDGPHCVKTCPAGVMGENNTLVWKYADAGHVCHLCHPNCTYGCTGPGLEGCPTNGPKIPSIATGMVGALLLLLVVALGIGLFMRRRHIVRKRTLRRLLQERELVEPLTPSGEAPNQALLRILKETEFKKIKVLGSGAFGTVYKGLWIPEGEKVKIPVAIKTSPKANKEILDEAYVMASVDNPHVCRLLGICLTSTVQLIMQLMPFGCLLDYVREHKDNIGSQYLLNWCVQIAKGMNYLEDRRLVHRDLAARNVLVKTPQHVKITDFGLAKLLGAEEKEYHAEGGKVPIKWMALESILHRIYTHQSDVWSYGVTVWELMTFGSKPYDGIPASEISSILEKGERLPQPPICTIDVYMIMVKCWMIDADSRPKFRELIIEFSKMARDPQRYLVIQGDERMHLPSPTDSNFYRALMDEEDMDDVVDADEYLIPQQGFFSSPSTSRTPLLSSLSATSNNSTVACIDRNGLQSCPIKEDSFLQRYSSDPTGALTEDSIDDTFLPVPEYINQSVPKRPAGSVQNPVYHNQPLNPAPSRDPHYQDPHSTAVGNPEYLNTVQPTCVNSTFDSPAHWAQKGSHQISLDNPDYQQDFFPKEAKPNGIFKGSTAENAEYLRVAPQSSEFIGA
Outline: as §2

Ba/F3 EGFR-Del19/C797S = Ba/F3 EGFR-Del19/C797S (Homo sapiens, UniProt P00533, C797S, cells depend on it, form not given); assay: Ba/F3 viability assay (CellTiter-Glo), DC; assay type: cell-based; conditions: anti-proliferation, read-out: BaF3 DC IC50
Outline: as §2

Ba/F3 Parental = assay: Ba/F3 viability assay (CellTiter-Glo), parental; assay type: cell-based; conditions: Mus musculus, BaF3, anti-proliferation
Outline: as §2

| Structure (SMILES) | IC50 (EGFR^L858R/T790M/C^797S) | IC50 (EGFR^L58R/T790M) | IC50 (EGFR^L858R) | GI50 [1] | GI50 (Ba/F3 EGFR-Del19/T790M) | GI50 (Ba/F3 EGFR-Del19/C797S) | IC50 (Ba/F3 Parental) |
| --- | --- | --- | --- | --- | --- | --- | --- |
| CCCN(C)Cc1ccc(-c2nn3c4cc(ncc24)Nc2ccnc(n2)-c2cnn(C)c2OCC[C@@H]3C)n1C [(138)] | < 0.01 µM | < 0.01 µM | < 0.01 µM | < 0.01 µM | < 0.01 µM | < 0.01 µM | 0.1 to 1 µM |
| C[C@H]1CCOc2c(cnn2C)-c2nccc(n2)Nc2cc3c(cn2)c(-c2cc(CN4CCOCC4)n(C)c2)nn31 [(139)] | < 0.01 µM | < 0.01 µM | < 0.01 µM | < 0.01 µM | < 0.01 µM | < 0.01 µM | 0.1 to 1 µM |
| C[C@H]1CCOc2c(cnn2C)-c2nccc(n2)Nc2cc3c(cn2)c(-c2ccc(CN4CCCC4)n2C)nn31 [(140)] | < 0.01 µM | < 0.01 µM | < 0.01 µM | < 0.01 µM | < 0.01 µM | < 0.01 µM | 0.1 to 1 µM |
| CCN(CC)C1CCN(c2cc(F)cc(-c3nn4c5cc(ncc35)Nc3ccnc(n3)-c3cnn(C)c3OCC[C@@H]4C)c2)CC1 [(141)] | < 0.01 µM | < 0.01 µM | < 0.01 µM | 0.01 to 0.1 µM | 0.01 to 0.1 µM | 0.01 to 0.1 µM | 0.1 to 1 µM |
| CCCN1CCN(Cc2cnc(-c3nn4c5cc(ncc35)Nc3ccnc(n3)-c3cnn(C)c3OCC[C@@H]4C)s2)CC1 [(142)] | < 0.01 µM | < 0.01 µM | < 0.01 µM | < 0.01 µM | 0.01 to 0.1 µM | 0.01 to 0.1 µM | 0.1 to 1 µM |
| C[C@H]1CCOc2c(cnn2C)-c2nccc(n2)Nc2cc3c(cn2)c(-c2ncc(CN4CCOCC4)s2)nn31 [(143)] | < 0.01 µM | < 0.01 µM | 0.01 to 0.1 µM | 0.01 to 0.1 µM | 0.01 to 0.1 µM | 0.01 to 0.1 µM | ≥ 1 µM |
| C[C@H]1CCOc2c(cnn2C)-c2nccc(n2)Nc2cc3c(cn2)c(-c2cc(CN4CCN(C)CC4)n(C)c2)nn31 [(144)] | < 0.01 µM | < 0.01 µM | < 0.01 µM | < 0.01 µM | < 0.01 µM | < 0.01 µM | 0.01 to 0.1 µM |
| C[C@H]1CCOc2c(cnn2C)-c2nccc(n2)Nc2cc3c(cn2)c(-c2cccc(OCCN4CCOCC4)c2)nn31 [(145), (16S)-11,16-dimethyl-19-[3-(2-morpholinoethoxy)phenyl]-13-oxa-2,6,10,11,17,18,22,25-octazapentacyclo[15.5.2.1^3,7.0^8,12.0^20,24]pentacosa-1(22),3,5,7(25),8(12),9,18,20,23-nonaene] | < 0.01 µM | < 0.01 µM | < 0.01 µM | < 0.01 µM | < 0.01 µM | 0.01 to 0.1 µM | 0.1 to 1 µM |
| CCn1cc(-c2nn3c4cc(ncc24)Nc2ccnc(n2)-c2cnn(C)c2OCC[C@@H]3C)cc1CN1CCN(C)CC1 [(146)] | < 0.01 µM | < 0.01 µM | < 0.01 µM | < 0.01 µM | < 0.01 µM | < 0.01 µM | 0.1 to 1 µM |
| C[C@H]1CCOc2c(cnn2C)-c2nccc(n2)Nc2cc3c(cn2)c(-c2cc(CN4CCN(C5CC5)CC4)n(C)c2)nn31 [(147)] | < 0.01 µM | < 0.01 µM | < 0.01 µM | < 0.01 µM | < 0.01 µM | < 0.01 µM | 0.1 to 1 µM |
| CCn1cc(-c2nn3c4cc(ncc24)Nc2ccnc(n2)-c2cnn(C)c2OCC[C@@H]3C)cc1CN1CCOCC1 [(148)] | < 0.01 µM | < 0.01 µM | < 0.01 µM | < 0.01 µM | < 0.01 µM | < 0.01 µM | 0.1 to 1 µM |
| CCN(CC)CCOc1cc(-c2nn3c4cc(ncc24)Nc2ccnc(n2)-c2cnn(C)c2OCC[C@@H]3C)ccc1F [(149)] | < 0.01 µM | < 0.01 µM | < 0.01 µM | < 0.01 µM | < 0.01 µM | 0.01 to 0.1 µM | 0.1 to 1 µM |
| Cc1ccc(-c2nn3c4cc(ncc24)Nc2ccnc(n2)-c2cnn(C)c2OCC[C@@H]3C)n1C [(150)] | < 0.01 µM | < 0.01 µM | 0.01 to 0.1 µM | 0.01 to 0.1 µM | 0.01 to 0.1 µM | 0.01 to 0.1 µM | ≥ 1 µM |
| CC(C)n1cc(-c2nn3c4cc(ncc24)Nc2ccnc(n2)-c2cnn(C)c2OCC[C@@H]3C)cc1CN1CCOCC1 [(151)] | < 0.01 µM | < 0.01 µM | < 0.01 µM | < 0.01 µM | < 0.01 µM | 0.01 to 0.1 µM | 0.1 to 1 µM |
| CCCn1cc(-c2nn3c4cc(ncc24)Nc2ccnc(n2)-c2cnn(C)c2OCC[C@@H]3C)cc1CN1CCOCC1 [(152)] | < 0.01 µM | < 0.01 µM | < 0.01 µM | < 0.01 µM | < 0.01 µM | < 0.01 µM | 0.1 to 1 µM |
| CCN(CC)CCOc1cc(-c2nn3c4cc(ncc24)Nc2ccnc(n2)-c2cnn(C)c2OCC[C@@H]3C)ccc1Cl [(153)] | < 0.01 µM | < 0.01 µM | < 0.01 µM | 0.01 to 0.1 µM | 0.01 to 0.1 µM | 0.01 to 0.1 µM | 0.1 to 1 µM |
| C[C@H]1CCOc2c(cnn2C)-c2nccc(n2)Nc2cc3c(cn2)c(-c2ccc(F)c(OCCN4CCOCC4)c2)nn31 [(154)] | < 0.01 µM | < 0.01 µM | < 0.01 µM | < 0.01 µM | 0.01 to 0.1 µM | 0.01 to 0.1 µM | 0.1 to 1 µM |
| C[C@H]1CCOc2c(cnn2C)-c2nccc(n2)Nc2cc3c(cn2)c(-c2nn(C)cc2CCN(C)C)nn31 [(155)] | < 0.01 µM | < 0.01 µM | < 0.01 µM | 0.01 to 0.1 µM | 0.01 to 0.1 µM | 0.01 to 0.1 µM | ≥ 1 µM |
| CCn1cc(-c2nn3c4cc(ncc24)Nc2ccnc(n2)-c2cnn(C)c2OCC[C@@H]3C)cc1CN(C)C [(156)] | < 0.01 µM | < 0.01 µM | < 0.01 µM | < 0.01 µM | < 0.01 µM | < 0.01 µM | 0.1 to 1 µM |
| C[C@H]1CCOc2c(cnn2C)-c2nccc(n2)Nc2cc3c(cn2)c(-c2ncc(CN(C)C)s2)nn31 [(157)] | < 0.01 µM | < 0.01 µM | < 0.01 µM | < 0.01 µM | 0.01 to 0.1 µM | 0.01 to 0.1 µM | 0.1 to 1 µM |
| CCN(CC)CCOc1cccc(-c2nn3c4cc(ncc24)Nc2ccnc(n2)-c2cnn(C)c2OCC[C@@H]3C)c1C [(158)] | < 0.01 µM | < 0.01 µM | 0.1 to 1 µM | 0.1 to 1 µM | 0.1 to 1 µM | 0.1 to 1 µM | 0.1 to 1 µM |
| CCN(CC)CCOc1ccc(C)c(-c2nn3c4cc(ncc24)Nc2ccnc(n2)-c2cnn(C)c2OCC[C@@H]3C)c1 [(159)] | 0.01 to 0.1 µM | 0.01 to 0.1 µM | 0.1 to 1 µM | 0.1 to 1 µM | 0.1 to 1 µM | 0.1 to 1 µM | 0.1 to 1 µM |
